# Laboratory results as given in patent US11712434B2, “Compound having anti-cancer effect, and preparation method therefor and use thereof” (3D MEDICINES (BEIJING) CO., LTD., priority 2016, dated 2023).
# Values joined by “and” are separate entries in the source; they are usually repeats but may differ in a detail not shown here. Identical values can stand only once. “Also recorded” adds a separate entry of the source.
# Tests used:
# [1] = Plasma stability study of compound 8 in rat plasma; type: in vitro ADME, SD rat; settings: for Residual compound 8 concentration: 37° C., Repeat 1 and 2
# Description: The purpose of this example was to investigate the stability of incubation of compound 8 in rat plasma (compound 8 was metabolized to form intermediate compound 12 and Linifanib, intermediate compound 12 was further metabolized to form Linifanib), and the metabolites were quantified and analyzed, and the stability of the incubation system was verified by a positive drug, which provided a reference for the evaluation of the drug-forming properties of the compound.
# 1. Instruments and Materials • Instrument: API3000 LC/MS, ABI • Materials: Male SD rats (200-250 g), Beijing Vital River • Test sample: positive drug and its metabolites M1 and M2, compound 8 and its metabolite compound 12 and Linifanib.
# 2. Compound 8 Plasma Stability Study • Test animal • Type: SD rat; Quantity: 2 • Sex: male; weight: 200-250 g;
# Experimental Procedure • 1). Animal blood was collected, blood samples were placed in EDTA anticoagulation tubes, centrifuged at 3000 g for 15 min at 4° C., plasma was separated, and 2 blood samples were mixed in equal volumes; • 2). Weighed a certain amount of compound 8 and dissolved in DMSO:MeOH (2:8), prepared into 200 μM mother liquor by purity conversion, and added the compound to plasma to reach a final concentration of 1 μg/mL in plasma. The organic ratio in the system was not more than 0.5%. • 3). Incubated in a 37° C. water bath and set the sampling points to 0, 0.5, 1, 2, 4, 6, 8 h. At each sampling point, 100 μL of each sample was collected and 300 μL of acetonitrile (with internal standard) was added for precipitation, centrifuged at 12,000 rpm for 5 min, and 200 μL of supernatant was taken for analysis by LC-MS/MS. • 4). Configured the standard curve to quantify compound 8, compound 12 and Linifanib
# [2] = system: 26 liver cancer cell lines; assay: Cell proliferation assay (Alamar Blue), liver cancer panel summary; type: cell-based; settings: almost all liver cancer cells
# Description: 1. Instruments and Materials • Thermo 311 CO2 incubator; Haier biosafety cabinet; Molecular Devices microplate reader; Xiangyi brand L530 desktop low speed centrifuge; Olympus IX51 inverted fluorescence microscope, DMEM, RPMI 1640, MEM, DMEM/F12 1:1 medium, Fetal bovine serum, 0.25% trypsin solution, phosphate buffer (Thermo Fisher Shanghai Co., Ltd.); sigma dimethyl sulfoxide (DMSO), resazurin; 54 commercial tumor cell lines (including 26 liver cancer cell lines). Experimental drugs: compounds 1-12 and active drug Linifanib; chemotherapeutic drug Doxorubicin (HY-15142; Shanghai Qianyuan Biomedical Technology Co., Ltd.).
# 2. […] The proportion and quantity of passage were determined by experimental needs. The ratio of subculture of this cell line was generally 1:2^˜1:3. • 2.2 Inhibition Effect on the Proliferation of Different Tumor Cell Lines • Cell test: 54 cell lines in logarithmic growth phase were inoculated in 96-well culture plates at 500^˜1×10^4/well (the optimal seeding density of each cell line was determined in pre-experiment), After incubating at 37° C. for 4 h in a 5% CO2 humidification incubator, added 10 μL of compounds 1-12 or Linifanib to each well, and tested 9 drug concentration gradients for each compound (diluted from the highest concentration of the test by 3.16 times). […]
structure (smiles),measurement,setting,value
Cc1ccc(F)c(NC(=O)Nc2ccc(-c3cccc4[nH]nc(NC(=O)CCCCCCCCCCCNC(=O)C[C@H](N)C(=O)N[C@@H](CCC(=O)N[C@@H](CCC(=O)N[C@@H](CCC(=O)N[C@@H](CCC(=O)O)C(=O)O)C(=O)O)C(=O)O)C(=O)O)c34)cc2)c1 [Compound 8],amount of Compound 12 and Linifanib produced by metabolism,[1],extremely small
same,Residual compound 8 concentration,[1]; 0 h,1200 ng/mL and 680 ng/mL
same,Residual compound 8 concentration,[1]; 0.5 h,1190 ng/mL and 1450 ng/mL
same,Residual compound 8 concentration,[1]; 1 h,1460 ng/mL and 1620 ng/mL
same,Residual compound 8 concentration,[1]; 2 h,960 ng/mL and 1040 ng/mL
same,Residual compound 8 concentration,[1]; 4 h,876 ng/mL and 868 ng/mL
same,Residual compound 8 concentration,[1]; 6 h,1110 ng/mL and 1190 ng/mL
same,Residual compound 8 concentration,[1]; 8 h,1200 ng/mL and 680 ng/mL
same,stability in plasma,[1]; up to 8 h,relatively stable; also recorded: very good
Cc1ccc(F)c(NC(=O)Nc2ccc(-c3cccc4[nH]nc(NC(=O)CCCCCCCCCCCNC(=O)C[C@H](N)C(=O)O)c34)cc2)c1 [Compound 12],response of liver cancer cells,[2],did not respond
